Results from US12691100B2, “NMT inhibitor treatment of a senescence-associated disease or disorder of the liver” (Imperial College Innovations Limited, priority 2020, dated 2026).

Tests used:
[1] = test system: IMR90 ER:RAS cells; assay: Intracellular levels of SASP cytokines IL-6 and IL-8 by immunofluorescence; type: cell-based, human; details: 4OHT-induced senescent cells; 7 days after addition of the drugs; FIGS. 12A-C
Experimental: Immunofluorescence staining was carried out by first fixing wells of 96 well plate at desired timepoint for 1 hour using 4% PFA (w/v, in PBS) followed by washing 3 times with PBS. Wells were then permeabilized using 0.2% Triton® X-100 (v/v, PBS) for 10 min or with 0.5% Triton® X-100 (v/v, PBS) for COPI staining. Wells were then washed twice with PBS to halt permeabilization and then non-specific antibody binding blocked by incubation with a blocking solution for 1 hour at RT. Blocking solution contained 1% BSA (w/v, PBS) supplemented with 0.4% Fish Skin Gelatin (v/v, PBS). Primary antibodies were diluted in respective blocking solution (see ‘Antibodies’ for dilutions), blocking solution removed from well and incubated with primary antibody solution for 1 hour at RT. […]
High content image analysis was carried out using the InCell Investigator 2.7.3 software (GE Healthcare®). […] Quantification for nuclear staining was measured as average pixel intensity (grey scale) for the wavelength of fluorophore across the area of the nuclear mask. Cytoplasmic staining quantification was of either the average pixel intensity or the coefficient of variance of pixel intensities within collar area. […]
The intracellular levels of two SASP components, IL-6 and IL-8 were assessed using stained cells. […]

[2] = test system: HCT116 colon cancer cells; assay: Senolytic survival assay, chemotherapy-induced senescence in cancer cells; type: cell-based, human; details: for Survival, senescent versus control cells: second experiment: doxorubicin 100 nM, etoposide 2 μM or cisplatin 100 μM, or DMSO, replenished after 72 h, 48 h more, FIGS. 7A-C
Experimental: IMR90 cells were used to generate inducible ER:RAS (hereinafter iRAS) cells to model Oncogene induced senescence (OIS), through retroviral infection of pLNC-ER:RAS-neo into IMR90 cells followed by selection with Neomycin. IMR90 cells containing the pLNC-ER:RAS plasmid backbone pLXSN were infected in parallel to assess leakiness in the pLNC-ER:RAS system. Treatment with 100 nM 4OHT (Sigma, in DMSO) was used to induce IMR90 ER:RAS cells to undergo oncogene induced senescence (OIS). Therapy induced senescence (TIS) was induced in IMR90 cells by treatment with 33 μM (50 ug/ml) bleomycin sulphate (Generon, HY-17565) for 24 hours, 20 μM palbociclib (Selleckchem, S1116) for 7 days or 100 nM doxorubicin (Cayman chemical, 15007) for 7 days. Senescence was induced in SK-HEP-1 cells by treatment with 2 μM etoposide (Sigma-Aldrich, E1383) for 7 days (FIGS. 4A-C). HCT-116 senescence was induced by 250 nM treatment with doxorubicin (Cayman chemical, 15007) for 48 hours followed by 5 days culture in media without chemotherapy (FIG. 5), or by treatment with 100 nM doxorubicin, 2 μM etoposide or 100 μM cisplatin for 3 days followed by 4 days culture in media without chemotherapy (FIGS. 6A-7C). Senescence was induced in MCF7 by 200 nM treatment with doxorubicin for 7 days, 2 μM etoposide for 7 days or 10 μM cisplatin for 7 days (FIGS. 8A-9C).
High-throughput microscopy survival assay—To assess senolytic effect of drugs, cells were cultured for 7 days, culture media was changed to DM0.5 media and drugs in DMSO were added (<5% v/v final concentration), drugs were replenished after 3 days if assay length was longer than 72 h. Wells were fixed in 4% PFA for 1 hour at day 10 to 14, washed 3 times with PBS and then stained with 1 μg/mL DAPI (w/v, PBS) for 10 minutes. Wells were then washed 3 times with PBS. Optionally plates could be stored at 4° C. for up to 2 weeks and DAPI stained. Image acquisition of DAPI stained cells was performed on an automated InCell Analyser 2000 (GE Healthcare®) and high-content analysis on the InCell Investigator 2.7.3 software used to quantify number of DAPI positive cells per well. […] Survival was measured as cell counts relative to DMSO treated quiescent or senescent cells.
In a first experiment, HCT116 colon cancer cells were treated with doxorubicin (to induce senescence), or DMSO (as a control). […] 7 days after adding the drugs with replenishment after 3 days, cells were fixed, imaged and cells numbers were quantified using high throughput microscopy. […]
In a second experiment, HCT116 were treated with doxorubicin, etoposide or cisplatin (to induce senescence) or DMSO (as a control). 7 days after treatment, BrdU incorporation (to assess cell division), SA-β-Galactosidase activity and p21^CIP1 expression (as markers of senescence) were analysed. […]

Structure (SMILES)	Intracellular levels of IL-6 and IL-8 [1]	Survival, senescent versus control cells [2]	Survival (cell counts relative to DMSO), senescent versus control cells ([2]; first experiment: doxorubicin or DMSO, compound added 7 days after induction, read 7 days later, FIG. 5)
Cc1c(NS(=O)(=O)c2c(Cl)cc(-c3ccnc(N4CCNCC4)c3)cc2Cl)c(CC(C)C)nn1C [Compound 2]	selectively resulted in an intracellular accumulation of these cytokines on senescent cells	preferentially kill cancer cells that undergo senescence after being treated with doxorubicin, etoposide or cisplatin	–
Cc1nn(C)c(C)c1CCOc1c(-c2ccc3c(c2)c(CN(C)C)nn3C)ccc(F)c1F [Compound 1, 1-(5-(3,4-difluoro-2-(2-(1,3,5-trimethyl-1H-pyrazol-4-yl)ethoxy)phenyl)-1-methyl-1H-indazol-3-yl)-N,N-dimethylmethanamine]	selectively resulted in an intracellular accumulation of these cytokines on senescent cells	preferentially kill cancer cells that undergo senescence after being treated with doxorubicin, etoposide or cisplatin	preferentially kills cancer cells that undergo senescence after being treated with doxorubicin
